Molecular target: T1, human CCR5 (Homo sapiens, UniProt P51681)
T1 construct: expressed in transfected cells
Assay: inhibition of [125I]-RANTES binding to CCR5/CHO cells
Conditions: test compound 1 μM, 100 pM [125I]-RANTES, room temperature, 40 minutes
Procedure: (1) Cloning of Human CCR5 Chemokine Receptor
Cloning of a CCR5 gene was conducted from human spleen cDNA by a PCR method. Using 0.5 ng of spleen cDNA (Toyobo Co., Ltd., QUICK-Clone cDNA) as a template, the PCR reaction was carried out in a DNA Thermal Cycler 480 (Perkin Elmer) using a TaKaRa EX Taq (Takara Shuzo Co., Ltd.) (reaction conditions: 30 cycles of treatments at 95° C. for 1 minute, at 60° C. for 1 minute, and at 75° C. for 5 minutes) by adding 25 pmol of primers, SEQ ID NO. 1 (sequence length: 34; sequence type: nucleic acid; number of chains: a single chain; topology: linear; sequence kind: other nucleic acid, synthetic DNA) described in Experimental Example (1) of WO 99/32100, and SEQ ID NO. 2 (sequence length: 34; sequence type: nucleic acid; number of chains: a single chain; topology: linear; sequence kind: other nucleic acid, synthetic DNA) described in Experimental Example (1) of WO 99/32100, respectively, which were prepared by referring to the base sequence of the CCR5 gene described by Samson et al. (Biochemistry 35 (11), 3362-3367 (1996)). The PCR products were subjected to agarose gel electrophoresis to collect DNA fragments of about 1.0 kb. Then, the CCR5 gene was cloned using an Original TA Cloning Kit (Funakoshi Co., Ltd.).
(2) Preparation of Plasmid for Expression of Human CCR5
The plasmids obtained above were digested with restriction enzymes XbaI (Takara Shuzo Co., Ltd.) and BamHI (Takara Shuzo Co., Ltd.), and subjected to agarose gel electrophoresis to collect DNA fragments of about 1.0 kb. The DNA fragments and a plasmid pcDNA3.1 (Funakoshi Co., Ltd.) for expression in animal cells, which was previously digested with XbaI and BamHI, were mixed and ligated by DNA Ligation Kit Ver. 2 (Takara Shuzo Co., Ltd.). Transformation of E. coli JM109 competent cells (Takara Shuzo Co., Ltd.) gave plasmid pCKR5.
(3) Introduction of the Plasmid for Expression of Human CCR5 into CHO-K1 Cells and Expression Thereof
CHO-K1 cells grown in a 750 ml tissue culture flask (Becton Dickinson) using Ham's F12 medium (Nihon Pharmaceutical Co., Ltd.) containing 10% fetal bovine serum (Lifetech Oriental) were collected from the flask by using 0.5 g/L trypsin-0.2 g/L EDTA (Lifetech Oriental). The cells were then washed with PBS (Lifetech Oriental), centrifuged (1000 rpm, 5 minutes), and suspended in PBS. Next, DNA was introduced into the cells using Gene Pulser (Bio-Rad Laboratories Inc.) under the following conditions. Namely, 8×10^6 cells and 10 μg of plasmid pCKR5 for expression of human CCR5 were added into a cuvette of a 0.4 cm-gap, and electroporation was carried out at an electric voltage of 0.25 kV and a capacitance of 960 μF. Subsequently, the cells were transferred into Ham's F12 medium containing 10% fetal bovine serum, and incubated for 24 hours. The cells were again collected, centrifuged, and then suspended in Ham's F12 medium containing 10% fetal bovine serum and Geneticin (Lifetech Oriental) at a concentration of 500 μg/ml. The suspension of cells was diluted to a concentration of 10^4 cells/ml, and inoculated on a 96-well plate (Becton Dickinson) to give Geneticin-resistant strains.
Subsequently, the Geneticin-resistant strains were cultured in the 96-well plate (Becton Dickinson), and then CCR5-expressing cells were selected from the resistant strains. […] The cells to which the ligand bound specifically, i.e., CCR5/CHO strains, were selected by measurement of radioactivity by γ-counter. […]

T1 sequence (P51681 whole entry): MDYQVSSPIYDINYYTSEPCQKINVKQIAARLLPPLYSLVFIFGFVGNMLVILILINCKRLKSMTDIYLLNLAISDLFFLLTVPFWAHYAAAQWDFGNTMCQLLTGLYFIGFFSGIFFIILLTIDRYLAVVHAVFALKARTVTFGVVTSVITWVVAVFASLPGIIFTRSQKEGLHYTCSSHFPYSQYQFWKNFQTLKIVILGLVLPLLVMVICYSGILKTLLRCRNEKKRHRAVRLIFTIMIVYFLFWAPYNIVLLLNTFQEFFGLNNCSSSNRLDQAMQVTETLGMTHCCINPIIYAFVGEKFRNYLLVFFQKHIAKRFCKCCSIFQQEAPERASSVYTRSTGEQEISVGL

| Structure (SMILES) | Binding Inhibitory Ratio (%) |
| --- | --- |
| CCCCOCCOc1ccc(-c2cnc3c(c2)C=C(C(=O)Nc2ccc([S@@+]([O-])Cc4cncn4CCC)cc2)CC[C@@H]2CCCN32)cc1 [Compound 16, (8aR,Ss)-3-[4-(2-butoxyethoxy)phenyl]-N-[4-[[(1-propyl-1H-imidazol-5-yl)methyl]sulfinyl]phenyl]-7,8,8a,9,10,11-hexahydropyrido[3,2-g]pyrrolo[1,2-a]azocine-6-carboxamide] | 94% |
| CCCCOCCOc1ccc(-c2cnc3c(c2)C=C(C(=O)Nc2ccc([S@@+]([O-])Cc4cncn4CCC)cc2)CCC2CCCN32)cc1 (some centres unmarked) [Compound 15, (Ss)-3-[4-(2-butoxyethoxy)phenyl]-N-[4-[[(1-propyl-1H-imidazol-5-yl)methyl]sulfinyl]phenyl]-7,8,8a,9,10,11-hexahydropyrido[3,2-g]pyrrolo[1,2-a]azocine-6-carboxamide] | 100% |
| CCCCOCCOc1ccc(-c2cnc3c(c2)C=C(C(=O)Nc2ccc([S@@+]([O-])Cc4cncn4CCC)cc2)CC[C@H]2CCCN32)cc1 [Compound 17, (8aS,Ss)-3-[4-(2-butoxyethoxy)phenyl]-N-[4-[[(1-propyl-1H-imidazol-5-yl)methyl]sulfinyl]phenyl]-7,8,8a,9,10,11-hexahydropyrido[3,2-g]pyrrolo[1,2-a]azocine-6-carboxamide] | 98% |
| CCCCOCCOc1ccc(-c2ccc3c(c2)C=C(C(=O)Nc2ccc([S+]([O-])Cc4cncn4CCC)cc2)CCC2CCCN32)cc1 (centres unmarked) [Compound 5, (Ss)-9-[4-(2butoxyethoxy)phenyl]-N-[4-[[(1-propyl-1H-imidazol-5-yl)methyl]sulfinyl]phenyl]-1,2,3,3a,4,5-hexahydropyrrolo[1,2-a][1]benzazocine-6-carboxamide] | 96% |
| CCCCOCCOc1ccc(-c2ccc3c(c2)C=C(C(=O)Nc2ccc([S+]([O-])Cc4cncn4CCC)cc2)CCC2CCCCN32)cc1 (centres unmarked) [Compound 8, (Ss)-10-[4-(2-butoxyethoxy)phenyl]-N-[[4-[(1-propyl-1H-imidazol-5-yl)methyl]sulfinyl]phenyl]-2,3,4,4a,5,6-hexahydropyrido[1,2-a][1]benzazocine-6-carboxamide] | 97% |
